For 28 compounds, IC50 and CC50 results are on record in patent US20230058961A1, “SUBSTITUTED HETEROCYCLICS WITH THERAPEUTIC ACTIVITY IN HIV” (New York Blood Center, Inc., priority 2019, published 2023).

One data set relates to pseudovirus HIV-1 HXB2. Put plainly: microbe, parasite or virus in culture. Type of data set: cell-based.
The nature of a further data set: in vitro. The settings on record: human.
The mark [1] stands for this setting: Human immunodeficiency virus 1, HXB2, TZM-bl, anti-HIV-1 activity, single-cycle assay, TZM-bl cells, pseudovirus HIV-1 HXB2, read-out: IC50.
Setting [2] is: anti-HIV-1 activity, single-cycle assay, TZM-bl cells, pseudovirus HIV-1 HXB2, read-out: IC50.
The mark [3] stands for this setting: CC50, cytotoxicity, TZM-bl cells, MTS, 3 days.

Method for in vitro: The anti-HIV-1 activity was assessed in a single-cycle assay by infecting TZM-bl indicator cells with the pseudovirus HIV-1 HXB2 according to established procedures (F. Curreli, Y. D. Kwon, D. S. Belov, R. R. Ramesh, A. V. Kurkin, A. Altieri, P. D. Kwong, A. K. Debnath, J Med Chem 2017, 60, 3124-3153; which is incorporated herein by reference for all that it teaches about the conduct and interpretation of the assay).
The cytotoxicity of the small polycyclic molecules in TZM-bl cells was determined by using the colorimetric method CellTiter 96® AQueous One Solution Cell Proliferation Assay (MTS) (Promega) following the manufacturer's instructions. Briefly, TZM-bl cells were platted in a 96-well tissue culture plate at 1×10^4/well and cultured at 37° C. Following overnight incubation, the cells were incubated with 100 μl of the compounds at graded concentrations and cultured for 3 days. The MTS reagent was added to the cells and incubated for 4 h at 37° C. The absorbance was recorded at 490 nm.

A word on the IC50: it is the point on the concentration scale where inhibition reaches its midpoint. As for `NCC(NC(=O)c1ccc(-c2ccc(C(F)(F)F)cn2)[nH]1)c1csc(CO)n1` (centres unmarked) [Compound 65, N-(2-Amino-1-(2-(hydroxymethyl)thiazol-4-yl)ethyl)-5-(5-(trifluoromethyl)pyridin-2-yl)-1H-pyrrole-2-carboxamide], in the data set with pseudovirus HIV-1 HXB2 (setting [1]), the IC50 is 1.6 ± 0.2 µM. The CC50 at 3 days in the data set “in vitro” (CC50) came to 84.3 ± 1.4 µM.
In the data set “in vitro” (CC50), `NCC(NC(=O)c1ccc(-c2ccc(Cl)cn2)[nH]1)c1csc(CO)n1` (centres unmarked) [Compound 67, N-(2-Amino-1-(2-(hydroxymethyl)thiazol-4-yl)ethyl)-5-(5-chloropyridin-2-yl)-1H-pyrrole-2-carboxamide] had a CC50 at 3 days above 106 µM.
Take `Cc1ccc(-c2ccc(C(=O)NC(CN)c3nc(CO)cs3)[nH]2)nc1` (centres unmarked) [Compound 19, N-(2-Amino-1-(4-(hydroxymethyl)thiazol-2-yl)ethyl)-5-(5-methylpyridin-2-yl)-1H-pyrrole-2-carboxamide]: in the data set on pseudovirus HIV-1 HXB2 (setting [2]), the IC50 stood at 9.6 ± 1.2 µM. In addition, the CC50 at 3 days in “in vitro” (CC50) was above 140 µM; in “in vitro” (setting [3]) it was above 100 µM.
On to `NCC(NC(=O)c1ccc(-c2ccc(F)cn2)[nH]1)c1nc(CO)cs1` (centres unmarked) [Compound 17, N-(2-Amino-1-(4-(hydroxymethyl)thiazol-2-yl)ethyl)-5-(5-fluoropyridin-2-yl)-1H-pyrrole-2-carboxamide], for which the figures for the IC50 in the data set on pseudovirus HIV-1 HXB2 (setting [1]) and in the data set on pseudovirus HIV-1 HXB2 (setting [2]) were above 10 µM and above 11 µM, respectively. For the same compound, the CC50 at 3 days is above 138 µM in the data set “in vitro” (CC50) and above 100 µM in the data set “in vitro” (setting [3]).
On to `Cc1cc(-c2ccc(C(F)(F)F)cn2)[nH]c1C(=O)NC(CN)c1csc(CO)n1` (centres unmarked) [Compound 63, N-(2-Amino-1-(2-(hydroxymethyl)thiazol-4-yl)ethyl)-3-methyl-5-(5-(trifluoromethyl)pyridin-2-yl)-1H-pyrrole-2-carboxamide], for which the half-inhibitory concentration (IC50) in the data set on pseudovirus HIV-1 HXB2 (setting [1]) was 1.4 ± 0.1 µM. In “in vitro” (CC50), this compound displayed a CC50 at 3 days of 42.3 ± 0.2 µM.
For `NCC(NC(=O)c1ccc(-c2ccc(C(F)(F)F)cn2)[nH]1)c1nc(CO)cs1` (centres unmarked) [Compound 21, N-(2-Amino-1-(4-(hydroxymethyl)thiazol-2-yl)ethyl)-5-(5-(trifluoromethyl)pyridin-2-yl)-1H-pyrrole-2-carboxamide], in the data set with pseudovirus HIV-1 HXB2 (setting [2]), the IC50 stood at 0.5 µM. In the data set “in vitro” (CC50), the CC50 at 3 days is 96 ± 6 µM.
Consider `Cc1cc(-c2ccc(C(F)(F)F)cn2)[nH]c1C(=O)NC(c1ncc(CO)s1)C(C)(C)N` (centres unmarked) [Compound 11, N-(2-Amino-1-(5-(hydroxymethyl)thiazol-2-yl)-2-methylpropyl)-3-methyl-5-(5-(trifluoro-methyl)pyridin-2-yl)-1H-pyrrole-2-carboxamide], for which the IC50 in the data set on pseudovirus HIV-1 HXB2 (setting [2]) amounted to 0.6 ± 0.2 µM. In addition, the CC50 at 3 days was 35.3 ± 2 µM in the data set “in vitro” (CC50) and below 50 µM in “in vitro” (setting [3]).
For `NCC(NC(=O)c1ccc(-c2ccc(C(F)(F)F)cn2)[nH]1)c1cnc(CO)s1` (centres unmarked) [Compound 57, N-(2-Amino-1-(2-(hydroxymethyl)thiazol-5-yl)ethyl)-5-(5-(trifluoromethyl)pyridin-2-yl)-1H-pyrrole-2-carboxamide], the IC50 with pseudovirus HIV-1 HXB2 (setting [1]) is 2.1 ± 0.4 µM. In “in vitro” (CC50), the CC50 at 3 days was above 122 µM.
`NCC(NC(=O)c1ccc(-c2ccc(C(F)(F)F)cc2)[nH]1)c1ncc(CO)s1` (centres unmarked) [Comparator B, reference compound]: in the data set “in vitro” (CC50), the CC50 at 3 days is 34 µM.
As to `CC(C)(N)C(NC(=O)c1ccc(-c2ccc(C(F)(F)F)cn2)[nH]1)c1nc(CO)cs1` (centres unmarked) [Compound 23, N-(2-Amino-1-(4-(hydroxymethyl)thiazol-2-yl)-2-methylpropyl)-5-(5-(trifluoromethyl)pyridin-2-yl)-1H-pyrrole-2-carboxamide], the half-inhibitory concentration (IC50) in the data set on pseudovirus HIV-1 HXB2 (setting [2]) amounted to 1.73 µM. Also, the values for the CC50 at 3 days in the data set “in vitro” (CC50) and in the data set “in vitro” (setting [3]) were 61 ± 6.5 µM and below 50 µM, respectively.
As for `NCC(NC(=O)c1ccc(-c2ccc(C(F)(F)F)cn2)[nH]1)c1nc(C(O)CO)cs1` (centres unmarked) [Compound 29, N-(2-Amino-1-(4-(1,2-dihydroxyethyl)thiazol-2-yl)ethyl)-5-(5-(trifluoromethyl)pyridin-2-yl)-1H-pyrrole-2-carboxamide], in the data set on pseudovirus HIV-1 HXB2 (setting [1]), the IC50 is 5.2 ± 0.9 µM. The CC50 at 3 days was above 113 µM in “in vitro” (CC50) and above 100 µM in the data set “in vitro” (setting [3]).
For `NCC(NC(=O)c1ccc(-c2ncc(Cl)cn2)[nH]1)c1nc(CO)cs1` (centres unmarked) [Compound 45, N-(2-Amino-1-(4-(hydroxymethyl)thiazol-2-yl)ethyl)-5-(5-chloropyrimidin-2-yl)-1H-pyrrole-2-carboxamide], the IC50 was above 10 µM in the data set on pseudovirus HIV-1 HXB2 (setting [1]) and above 15.8 µM in the data set with pseudovirus HIV-1 HXB2 (setting [2]). In the data set “in vitro” (CC50), this compound showed a CC50 at 3 days above 66 µM.
Take `NCC(NC(=O)c1ccc(-c2ccc(C(F)(F)F)cn2)[nH]1)c1nc(CO)c(CO)s1` (centres unmarked) [Compound 35, N-(2-Amino-1-(4,5-bis(hydroxymethyl)thiazol-2-yl)ethyl)-5-(5-(trifluoromethyl)pyridin-2-yl)-1H-pyrrole-2-carboxamide]: in the data set on pseudovirus HIV-1 HXB2 (setting [2]), the concentration for half-maximal inhibition (IC50) turned out to be 1.8 µM. The CC50 at 3 days in “in vitro” (CC50) was above 113 µM.
Consider `Cc1cc(-c2ccc(Cl)cn2)[nH]c1C(=O)NC(CN)c1ncc(CO)s1` (centres unmarked) [Compound 3, N-(2-Amino-1-(5-(hydroxymethyl)thiazol-2-yl)ethyl)-5-(5-chloropyridin-2-yl)-3-methyl-1H-pyrrole-2-carboxamide], for which the IC50 in the data set with pseudovirus HIV-1 HXB2 (setting [1]) is 1.2 ± 0.1 µM. The compound further registered a CC50 at 3 days in “in vitro” (CC50) of 98.3 ± 4 µM.
As for `NCC(NC(=O)c1ccc(-c2ccc(C(F)(F)F)cn2)[nH]1)c1ncc(CO)s1` (centres unmarked) [Compound 5, N-(2-Amino-1-(5-(hydroxymethyl)thiazol-2-yl)ethyl)-5-(5-(trifluoromethyl)pyridin-2-yl)-1H-pyrrole-2-carboxamide], the IC50 with pseudovirus HIV-1 HXB2 (setting [1]) was below 1 µM; with pseudovirus HIV-1 HXB2 (setting [2]), 0.96 µM. The same compound returned a CC50 at 3 days in the data set “in vitro” (CC50) above 122 µM.
In the case of `Cc1cc(-c2ccc(C(F)(F)F)cn2)[nH]c1C(=O)NC(CN)c1ncc(CO)s1` (centres unmarked) [Compound 7, N-(2-amino-1-(5-(hydroxymethyl)thiazol-2-yl)ethyl)-3-methyl-5-(5-(trifluoromethyl)pyridin-2-yl)-1H-pyrrole-2-carboxamide], the IC50 with pseudovirus HIV-1 HXB2 (setting [1]) is below 1 µM. In the data set “in vitro” (CC50), this compound returned a CC50 at 3 days of 92.8 ± 2.4 µM.
The matching figures for `NCC(NC(=O)c1ccc(-c2ccc(C(F)(F)F)cn2)[nH]1)c1nccs1` (centres unmarked) [Compound 37, N-(2-Amino-1-(thiazol-2-yl)ethyl)-5-(5-(trifluoromethyl)pyridin-2-yl)-1H-pyrrole-2-carboxamide]: 2 ± 0.2 µM and 89.3 ± 1 µM.
Turning to `NCC(NC(=O)c1ccc(-c2ccc(C(F)(F)F)cn2)[nH]1)c1csc(C(=O)NCCO)n1` (centres unmarked) [Compound 69, 4-(2-Amino-1-(5-(5-(trifluoromethyl)pyridin-2-yl)-1H-pyrrole-2-carboxamido)ethyl)-N-(2-hydroxyethyl)thiazole-2-carboxamide], in the data set on pseudovirus HIV-1 HXB2 (setting [1]), the IC50 was above 21.3 µM. Also, in the data set “in vitro” (CC50), the CC50 at 3 days is above 107 µM.
Turning to `CC(CN)(NC(=O)c1ccc(-c2ccc(C(F)(F)F)cn2)[nH]1)c1nc(CO)cs1` (racemic) [Compound 32, N-(1-Amino-2-(4-(hydroxymethyl)thiazol-2-yl)propan-2-yl)-5-(5-(trifluoromethyl)pyridin-2-yl)-1H-pyrrole-2-carboxamide], the IC50 with pseudovirus HIV-1 HXB2 (setting [1]) worked out at 5.1 ± 0.4 µM. In “in vitro” (CC50), this compound gave a CC50 at 3 days above 70.5 µM.
For the compound `NCC(NC(=O)c1ccc(-c2ccc(Cl)nc2)[nH]1)c1nc(CO)cs1` (centres unmarked) [Compound 39, N-(2-Amino-1-(4-(hydroxymethyl)thiazol-2-yl)ethyl)-5-(6-chloropyridin-3-yl)-1H-pyrrole-2-carboxamide], the results for the half-maximal inhibitory concentration (IC50) with pseudovirus HIV-1 HXB2 (setting [1]) and with pseudovirus HIV-1 HXB2 (setting [2]) were above 10 µM and above 11 µM, respectively. Also, the CC50 at 3 days in the data set “in vitro” (CC50) was above 132 µM; in the data set “in vitro” (setting [3]) it was above 100 µM.
With `COc1cc(-c2ccc(C(=O)NC(CN)c3nc(CO)cs3)[nH]2)ccn1` (centres unmarked) [Compound 47, N-(2-Amino-1-(4-(hydroxymethyl)thiazol-2-yl)ethyl)-5-(2-methoxypyridin-4-yl)-1H-pyrrole-2-carboxamide], the IC50 with pseudovirus HIV-1 HXB2 (setting [1]) was above 10 µM; with pseudovirus HIV-1 HXB2 (setting [2]), above 11 µM. This compound also had a CC50 at 3 days in the data set “in vitro” (CC50) above 133 µM.
Take `NCC(NC(=O)c1ccc(-c2ccc(C(F)(F)F)nc2)[nH]1)c1nc(CO)cs1` (centres unmarked) [Compound 41, N-(2-Amino-1-(4-(hydroxymethyl)thiazol-2-yl)ethyl)-5-(6-(trifluoromethyl)pyridin-3-yl)-1H-pyrrole-2-carboxamide]: the half-maximal inhibitory concentration (IC50) in the data set with pseudovirus HIV-1 HXB2 (setting [1]) was above 10 µM; with pseudovirus HIV-1 HXB2 (setting [2]) it was 12.7 ± 2.8 µM. Moreover, the CC50 at 3 days is above 122 µM in the data set “in vitro” (CC50) and above 100 µM in “in vitro” (setting [3]).
`NCC(NC(=O)c1ccc(-c2ccc(C(F)(F)F)c(F)c2)[nH]1)c1ncc(CO)s1` (centres unmarked) [Comparator A, reference compound] came in with an IC50 in the data set with pseudovirus HIV-1 HXB2 (TZM-bl) of 0.089 µM. In “in vitro” (CC50), this compound yielded a CC50 at 3 days of 21.9 µM.
On to `NCC(NC(=O)c1ccc(-c2ccc(Cl)cn2)[nH]1)c1cnc(CO)s1` (centres unmarked) [Compound 59, N-(2-Amino-1-(2-(hydroxymethyl)thiazol-5-yl)ethyl)-5-(5-chloropyridin-2-yl)-1H-pyrrole-2-carboxamide], for which the IC50 with pseudovirus HIV-1 HXB2 (setting [2]) is around 26 µM. This compound also yielded a CC50 at 3 days in “in vitro” (CC50) above 106 µM.
Take `NCC(NC(=O)c1ccc(-c2ccc(C(F)(F)F)cn2)[nH]1)c1ncc(C(O)CO)s1` (centres unmarked) [Compound 13, N-(2-Amino-1-(5-(1,2-dihydroxyethyl)thiazol-2-yl)ethyl)-5-(5-(trifluoromethyl)pyridin-2-yl)-1H-pyrrole-2-carboxamide]: the IC50 with pseudovirus HIV-1 HXB2 (setting [2]) was 2.1 ± 0.3 µM. In addition, the values for the CC50 at 3 days in the data set “in vitro” (CC50) and in the data set “in vitro” (setting [3]) were above 113 µM and above 100 µM, respectively.
For the compound `NCC(NC(=O)c1ccc(-c2ccc(C(F)(F)F)cn2)[nH]1)c1nc(CCO)cs1` (centres unmarked) [Compound 25, N-(2-Amino-1-(4-(2-hydroxyethyl)thiazol-2-yl)ethyl)-5-(5-(trifluoromethyl)pyridin-2-yl)-1H-pyrrole-2-carboxamide], the IC50 with pseudovirus HIV-1 HXB2 (setting [2]) stood at 1.7 µM. Also, the CC50 at 3 days in the data set “in vitro” (CC50) came out at 100 ± 7 µM.
For `NCC(NC(=O)c1ccc(-c2ccc(Cl)cn2)[nH]1)c1ncc(CO)s1` (centres unmarked) [Compound 2, N-(2-Amino-1-(5-(hydroxymethyl)thiazol-2-yl)ethyl)-5-(5-chloropyridin-2-yl)-1H-pyrrole-2-carboxamide], in that order: 2.7 ± 0.7 µM and 142 ± 1.7 µM.
In the case of `Cc1cc(-c2ccc(C(F)(F)F)cn2)[nH]c1C(=O)NC(CN)c1cnc(CO)s1` (centres unmarked) [Compound 61, N-(2-Amino-1-(2-(hydroxymethyl)thiazol-5-yl)ethyl)-3-methyl-5-(5-(trifluoromethyl)pyridin-2-yl)-1H-pyrrole-2-carboxamide], in the data set with pseudovirus HIV-1 HXB2 (setting [1]), the IC50 is 2.3 ± 1 µM. Further, the CC50 at 3 days in the data set “in vitro” (CC50) stood at 65 ± 4.9 µM.
